Measured values taken from ChEMBL document CHEMBL5303766, “Data for DCP probe FHT-2344” (2022).

How the values were obtained:
[1] = target: Mitogen-activated protein kinase 14 (Homo sapiens) (UniProt Q16539); assay: MAPK14 SGC Tm panel (DSF); settings: for ΔTm: Compound concentration 10.0 uM
[2] = target: MAP kinase-activated protein kinase 2 (Homo sapiens) (UniProt P49137); assay: MAPKAPK2 SGC Tm panel (DSF); settings: for ΔTm: Compound concentration 10.0 uM
[3] = target: Homeodomain-interacting protein kinase 2 (Homo sapiens) (UniProt Q9H2X6); assay: HIPK2 SGC Tm panel (DSF); settings: for ΔTm: Compound concentration 10.0 uM
Homeodomain-interacting protein kinase 2 (Homo sapiens), sequence (Q9H2X6 whole entry, looked up): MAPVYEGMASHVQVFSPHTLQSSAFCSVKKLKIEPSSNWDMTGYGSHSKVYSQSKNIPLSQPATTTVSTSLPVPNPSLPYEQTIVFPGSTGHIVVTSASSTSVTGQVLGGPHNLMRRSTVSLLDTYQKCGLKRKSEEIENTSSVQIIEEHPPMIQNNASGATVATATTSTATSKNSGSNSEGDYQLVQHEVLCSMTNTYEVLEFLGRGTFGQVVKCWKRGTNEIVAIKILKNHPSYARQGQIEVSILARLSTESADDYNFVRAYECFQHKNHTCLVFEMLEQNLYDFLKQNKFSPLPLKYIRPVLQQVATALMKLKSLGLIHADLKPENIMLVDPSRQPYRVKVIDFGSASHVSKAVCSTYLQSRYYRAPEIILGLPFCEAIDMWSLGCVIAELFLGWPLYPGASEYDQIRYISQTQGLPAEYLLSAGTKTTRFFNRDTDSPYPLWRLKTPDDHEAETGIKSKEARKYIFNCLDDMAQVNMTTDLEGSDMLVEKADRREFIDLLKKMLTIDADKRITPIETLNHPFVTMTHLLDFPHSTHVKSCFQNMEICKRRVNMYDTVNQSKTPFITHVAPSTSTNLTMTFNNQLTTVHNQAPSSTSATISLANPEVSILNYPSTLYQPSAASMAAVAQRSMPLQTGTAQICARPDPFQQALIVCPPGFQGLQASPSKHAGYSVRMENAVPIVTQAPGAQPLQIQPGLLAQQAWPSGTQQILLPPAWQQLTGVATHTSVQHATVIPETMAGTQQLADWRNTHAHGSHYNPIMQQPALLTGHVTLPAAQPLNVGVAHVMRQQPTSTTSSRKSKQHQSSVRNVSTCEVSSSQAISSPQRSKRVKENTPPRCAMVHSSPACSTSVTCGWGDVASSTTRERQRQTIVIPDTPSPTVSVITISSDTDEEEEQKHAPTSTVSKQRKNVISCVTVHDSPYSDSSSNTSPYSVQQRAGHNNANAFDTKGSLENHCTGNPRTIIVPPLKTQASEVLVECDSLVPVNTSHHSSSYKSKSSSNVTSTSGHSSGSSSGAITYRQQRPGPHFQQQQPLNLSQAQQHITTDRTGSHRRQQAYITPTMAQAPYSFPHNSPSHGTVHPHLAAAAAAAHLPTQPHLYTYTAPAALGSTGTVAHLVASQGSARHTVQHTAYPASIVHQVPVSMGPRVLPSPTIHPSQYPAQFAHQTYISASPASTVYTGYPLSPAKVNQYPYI

[4] = target: T1, Ribosyldihydronicotinamide dehydrogenase [quinone] (Homo sapiens) (UniProt P16083); assay: NQO2 SGC Tm panel (DSF); settings: for ΔTm: Compound concentration 10.0 uM
T1 sequence (whole entry): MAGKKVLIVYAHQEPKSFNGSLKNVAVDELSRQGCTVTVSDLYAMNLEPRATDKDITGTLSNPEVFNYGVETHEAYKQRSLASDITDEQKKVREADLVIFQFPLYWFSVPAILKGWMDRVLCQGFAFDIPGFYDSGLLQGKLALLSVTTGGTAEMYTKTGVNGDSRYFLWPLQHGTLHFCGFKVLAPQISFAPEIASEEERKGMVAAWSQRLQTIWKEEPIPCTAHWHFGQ

[5] = target: Muscarinic acetylcholine receptor M3 (Homo sapiens) (UniProt P20309); settings: Compound concentration 10.0 uM
Muscarinic acetylcholine receptor M3 (Homo sapiens), sequence (P20309 whole entry, looked up): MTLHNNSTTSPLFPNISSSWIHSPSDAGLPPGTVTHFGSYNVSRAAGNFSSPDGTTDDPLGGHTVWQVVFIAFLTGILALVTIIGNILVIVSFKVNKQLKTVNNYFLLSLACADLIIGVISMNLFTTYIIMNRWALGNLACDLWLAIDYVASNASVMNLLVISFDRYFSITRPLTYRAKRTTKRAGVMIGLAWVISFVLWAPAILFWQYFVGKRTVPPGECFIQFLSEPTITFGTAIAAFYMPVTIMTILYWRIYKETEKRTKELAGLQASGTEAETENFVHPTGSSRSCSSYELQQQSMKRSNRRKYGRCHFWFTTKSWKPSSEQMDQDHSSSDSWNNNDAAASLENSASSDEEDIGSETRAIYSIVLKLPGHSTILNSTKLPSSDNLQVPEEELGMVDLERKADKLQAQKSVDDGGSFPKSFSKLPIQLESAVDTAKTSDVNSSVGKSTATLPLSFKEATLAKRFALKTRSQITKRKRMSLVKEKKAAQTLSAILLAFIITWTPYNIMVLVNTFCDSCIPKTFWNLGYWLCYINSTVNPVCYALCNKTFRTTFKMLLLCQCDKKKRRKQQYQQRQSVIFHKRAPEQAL

[6] = target: T2, Serine/threonine-protein kinase tousled-like 1 (Homo sapiens) (UniProt Q9UKI8); assay: TLK1 SGC Tm panel (DSF); settings: for ΔTm: Compound concentration 10.0 uM
T2 sequence (whole entry): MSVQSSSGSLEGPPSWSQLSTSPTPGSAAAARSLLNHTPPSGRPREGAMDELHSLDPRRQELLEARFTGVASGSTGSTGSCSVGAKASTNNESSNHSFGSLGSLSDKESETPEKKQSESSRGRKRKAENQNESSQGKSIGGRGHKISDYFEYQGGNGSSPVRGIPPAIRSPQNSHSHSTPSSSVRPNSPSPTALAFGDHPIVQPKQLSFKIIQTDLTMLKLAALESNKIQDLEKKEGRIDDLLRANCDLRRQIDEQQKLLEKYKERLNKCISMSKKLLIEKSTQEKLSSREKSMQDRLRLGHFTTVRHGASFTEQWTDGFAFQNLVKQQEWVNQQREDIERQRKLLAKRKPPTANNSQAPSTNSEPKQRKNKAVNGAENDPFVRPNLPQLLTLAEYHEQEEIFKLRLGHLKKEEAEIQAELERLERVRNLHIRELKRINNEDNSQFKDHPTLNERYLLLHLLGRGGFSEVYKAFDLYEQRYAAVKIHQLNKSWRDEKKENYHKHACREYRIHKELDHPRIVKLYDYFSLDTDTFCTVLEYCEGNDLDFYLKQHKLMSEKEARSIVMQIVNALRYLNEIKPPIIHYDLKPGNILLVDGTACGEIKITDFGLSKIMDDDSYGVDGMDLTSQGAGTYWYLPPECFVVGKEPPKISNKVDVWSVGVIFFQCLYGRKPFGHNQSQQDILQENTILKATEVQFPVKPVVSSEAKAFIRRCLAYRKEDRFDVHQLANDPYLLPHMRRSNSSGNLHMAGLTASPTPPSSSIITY

[7] = target: T3, Mitogen-activated protein kinase 13 (Homo sapiens) (UniProt O15264); assay: MAPK13 SGC Tm panel (DSF); settings: for ΔTm: Compound concentration 10.0 uM
T3 sequence (whole entry): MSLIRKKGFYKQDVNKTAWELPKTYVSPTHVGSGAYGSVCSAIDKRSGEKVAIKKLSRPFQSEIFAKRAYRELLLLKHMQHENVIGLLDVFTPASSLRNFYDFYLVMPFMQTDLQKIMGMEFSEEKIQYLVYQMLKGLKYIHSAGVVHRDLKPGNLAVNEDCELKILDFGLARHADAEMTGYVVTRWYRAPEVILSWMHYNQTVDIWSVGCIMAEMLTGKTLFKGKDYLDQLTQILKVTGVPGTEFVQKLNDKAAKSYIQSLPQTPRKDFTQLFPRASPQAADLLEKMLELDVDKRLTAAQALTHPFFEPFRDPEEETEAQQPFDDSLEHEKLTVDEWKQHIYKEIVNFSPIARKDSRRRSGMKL

[8] = target: Mu-type opioid receptor (Homo sapiens) (UniProt P35372); settings: Compound concentration 10.0 uM
Mu-type opioid receptor (Homo sapiens), sequence (P35372 whole entry): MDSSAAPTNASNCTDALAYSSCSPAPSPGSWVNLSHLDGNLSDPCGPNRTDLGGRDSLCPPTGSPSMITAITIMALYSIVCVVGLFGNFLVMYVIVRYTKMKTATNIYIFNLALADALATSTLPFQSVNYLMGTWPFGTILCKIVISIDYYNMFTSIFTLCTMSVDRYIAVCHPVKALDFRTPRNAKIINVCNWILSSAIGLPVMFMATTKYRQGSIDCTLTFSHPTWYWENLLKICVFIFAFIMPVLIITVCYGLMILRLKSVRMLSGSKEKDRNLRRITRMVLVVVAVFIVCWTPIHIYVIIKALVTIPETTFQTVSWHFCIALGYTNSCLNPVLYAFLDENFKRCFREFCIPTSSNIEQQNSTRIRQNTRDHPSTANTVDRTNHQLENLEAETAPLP

[9] = target: T4, Ephrin type-B receptor 1 (Homo sapiens) (UniProt P54762); assay: EPHB1 SGC Tm panel (DSF); settings: for ΔTm: Compound concentration 10.0 uM
T4 sequence (whole entry): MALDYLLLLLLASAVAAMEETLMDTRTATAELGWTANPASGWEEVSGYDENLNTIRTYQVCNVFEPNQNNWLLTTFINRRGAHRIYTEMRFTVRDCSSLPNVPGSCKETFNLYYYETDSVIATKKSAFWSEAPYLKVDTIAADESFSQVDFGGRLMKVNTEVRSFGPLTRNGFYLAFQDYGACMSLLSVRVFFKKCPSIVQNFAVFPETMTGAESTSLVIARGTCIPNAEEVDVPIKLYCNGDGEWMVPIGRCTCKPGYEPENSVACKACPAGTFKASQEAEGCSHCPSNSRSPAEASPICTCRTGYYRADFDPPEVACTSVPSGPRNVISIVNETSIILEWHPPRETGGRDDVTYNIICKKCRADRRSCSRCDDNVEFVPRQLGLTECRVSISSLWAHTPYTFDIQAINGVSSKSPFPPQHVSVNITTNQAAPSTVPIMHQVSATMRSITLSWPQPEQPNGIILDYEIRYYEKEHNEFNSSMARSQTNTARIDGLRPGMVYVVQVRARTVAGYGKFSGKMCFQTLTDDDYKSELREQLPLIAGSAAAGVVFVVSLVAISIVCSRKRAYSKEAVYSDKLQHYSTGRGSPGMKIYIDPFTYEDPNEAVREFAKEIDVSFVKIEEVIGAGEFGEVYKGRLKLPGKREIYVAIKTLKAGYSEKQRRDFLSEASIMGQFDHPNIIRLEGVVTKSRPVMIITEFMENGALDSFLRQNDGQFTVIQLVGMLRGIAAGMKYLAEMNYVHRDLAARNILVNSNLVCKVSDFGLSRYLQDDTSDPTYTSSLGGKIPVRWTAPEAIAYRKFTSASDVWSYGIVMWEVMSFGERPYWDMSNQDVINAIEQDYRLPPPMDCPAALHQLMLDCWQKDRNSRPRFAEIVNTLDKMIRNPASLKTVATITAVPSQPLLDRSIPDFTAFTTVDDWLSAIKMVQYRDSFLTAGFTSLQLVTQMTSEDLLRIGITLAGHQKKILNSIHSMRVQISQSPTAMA

Mitogen-activated protein kinase 14 (Homo sapiens), sequence (Q16539 whole entry): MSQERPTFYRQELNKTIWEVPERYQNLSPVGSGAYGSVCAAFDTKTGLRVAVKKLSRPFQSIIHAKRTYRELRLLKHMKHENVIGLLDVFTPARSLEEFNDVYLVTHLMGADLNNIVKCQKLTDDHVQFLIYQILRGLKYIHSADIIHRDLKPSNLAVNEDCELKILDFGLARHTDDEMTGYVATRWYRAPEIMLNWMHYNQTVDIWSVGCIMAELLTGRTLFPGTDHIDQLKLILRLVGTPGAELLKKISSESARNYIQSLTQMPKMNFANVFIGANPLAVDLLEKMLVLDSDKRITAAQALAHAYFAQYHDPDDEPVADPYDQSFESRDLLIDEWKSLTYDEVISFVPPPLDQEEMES
MAP kinase-activated protein kinase 2 (Homo sapiens), sequence (P49137 whole entry, looked up): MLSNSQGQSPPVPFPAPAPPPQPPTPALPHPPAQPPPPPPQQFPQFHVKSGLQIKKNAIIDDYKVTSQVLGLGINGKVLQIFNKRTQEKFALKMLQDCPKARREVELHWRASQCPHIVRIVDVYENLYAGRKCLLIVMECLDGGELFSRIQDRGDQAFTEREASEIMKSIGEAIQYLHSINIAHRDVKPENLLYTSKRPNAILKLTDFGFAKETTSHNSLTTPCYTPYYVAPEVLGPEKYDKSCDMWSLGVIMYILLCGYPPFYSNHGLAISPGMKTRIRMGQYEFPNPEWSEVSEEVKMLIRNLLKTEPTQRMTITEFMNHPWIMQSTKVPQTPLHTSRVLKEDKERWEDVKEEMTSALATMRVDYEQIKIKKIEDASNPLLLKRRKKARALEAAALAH

delta Tm Staurosporine positive control [1] | ΔTm [1] | delta Tm Staurosporine positive control [2] | ΔTm [2] | delta Tm Staurosporine positive control [3] | ΔTm [3] | delta Tm Staurosporine positive control [4] | ΔTm [4] | inhibition [5] [%] | delta Tm Staurosporine positive control [6] | ΔTm [6] | delta Tm Staurosporine positive control [7] | ΔTm [7] | inhibition [8] [%] | delta Tm Staurosporine positive control [9] | ΔTm [9] | Structure (SMILES)
1.14 | -0.0969 | 3.41 | 0.842 | 6.38 | 0.234 | -2.91 | -0.772 | 9.46 | 9.52 | 1.38 | 6.96 | 0.221 | 18.8 | 6.19 | -0.318 | COC[C@H](NC(=O)c1ccn(S(C)(=O)=O)c1)C(=O)Nc1nc(-c2cccc(-c3ccn(C)n3)c2)cs1
1.14 | -0.0712 | 3.41 | -9.54 | 6.38 | 0.207 | -2.91 | -0.586 | 40.1 | 9.52 | 1.6 | 6.96 | 0.161 | 8.54 | 6.19 | 0.229 | C[C@H](NC(=O)c1cn(C2(C#N)CC2)cn1)C(=O)Nc1nc(-c2cccc(-c3ccn(C)n3)c2)cs1
